Usually pIC50 stands for −log10 of the IC50, conventionally taken in molar units. Usually viability, T/C stands for the result in the treated group divided by that in the control group, in per cent.

This experiment relates to 327498-153-R-J2-PDC multicell spheroid viability. The experiment in a line: Anticancer human tumor 327498-153-R-J2-PDC patient-derived uterine carcinosarcoma cell line growth inhibition [IpAb]. The following applies: for viability, T/C: stronger effect = lower value. The source says: Combinatorial screen of targeted agents with ipatasertib and abemaciclib in multi-cell type tumor spheroids
A high-throughput screen of multi-cell type tumor spheroids was designed to identify active combinations of targeted small molecules and ipatasertib or abemaciclib. Complex spheroids include a stromal component modeled by human endothelial cells (HUVEC) and fibroblasts modeled by human mesenchymal stem cells (MSCs). The concentration ranges selected for each drug and investigational agent were based upon clinically achievable concentrations if the clinical Cmax of the agent was known.
Compounds. The drugs and investigational agents: ipatasertib (NSC767898), abemaciclib(NSC768073), selumetinib (NSC741078), trametinib (758246), adavosertib (NSC754352), everolimus (NSC733504), sapanisertib (NSC764658), vemurafenib (NSC761431), venetoclax (NSC766270), copanlisib (NSC809693), apelisib (NSC765974), palbociblib (NSC758247), vemurafenib (NSC761431), dabrafenib (NSC764134), ravoxertinib (NSC781343), BMS-387032 (NSC767048), sotorasib (NSC818433), talazoparib (NSC767125) and afursertib (NSC778305), were obtained from the National Cancer Institute (NCI) Developmental Therapeutics Program Chemical Repository. The FDA-approved anticancer drug set is available from the NCI Developmental Therapeutics Program. […] The stock solutions were prepared in dimethyl sulfoxide (DMSO, Sigma-Aldrich, St. Louis, MO, cat. D2650) at 800-fold the tested concentration and stored at -70 degrees C prior to their use. All drugs and investigational agents were tested over a range starting from a high concentration at or near the clinical Cmax and decreasing in half-log increments. If the clinical Cmax for an agent had not been determined, the highest concentration tested was 10 microM.
NCI60 Cell Culture. NCI60 cell lines were obtained from the NCI Developmental Therapeutics Program Tumor Repository. For each lot of cells, the Repository performed Applied Biosystems AmpFLSTR Identifiler testing with PCR amplification to confirm consistency with the published Identifier STR profile for each cell line. Cells were kept in continuous culture for no more than 20 passages. The optimal seeding densities for each of the cell lines at each time point assessed were determined prior to performing the concentration response studies. Briefly, the NCI60 human tumor lines were grown as monolayers in RPMI 1640 medium supplemented with 10% FBS and 2 mmol/L L-glutamine.
An additional 9 lines were from the NCI60 cell line panel including MDA-MB-231 breast carcinoma, MDA-MB-468 breast carcinoma, MCF7 breast carcinoma, Hs578T breast carcinoma, MALME-3M melanoma, SK-MEL-2 melanoma, SK-OV-3 ovarian carcinoma, DU-145 prostate carcinoma, PC-3 prostate carcinoma, all cell lines along with major genetic alterations are listed on Table 2. Pooled donor human umbilical vein endothelial cells (HUVEC, Lonza, cat. CC-2519) and human mesenchymal stem cells (hMSC, Lonza, cat. PT-2501) were purchased from Lonza (Walkersville, MD).
PDMR cell lines were grown in complete medium (DC medium): Dulbecco's modified Eagle's medium (DMEM)/F12 supplemented with 5% fetal bovine serum (FBS), 2 mM L-glutamine, 100 U/mL penicillin and 100 µg/ml streptomycin, 0.4 µg/ml hydrocortisone, 10 ng/ml epidermal growth factor (EGF) recombinant human protein, 24 µg/mL adenine, and 0.1 mg/mL primocin. During culture from frozen stock vials, PDMR cells were cultured in the same medium containing 10 µM Y-27632 (see Table 3). The PDCs were cultured in complete DMEM/F12 media without 10 microM Y-27632 dihydrochloride for at least two passages prior to the screen. The pooled donor HUVEC and hMSC were cultured in endothelial cell growth medium 2 (PromoCell, Heidelberg, Germany, cat. C-22011) and mesenchymal stem cell growth medium 2 (PromoCell, cat. C-28009), respectively. For all experiments, HUVEC and hMSC were used at passages </=5.
[…]

[1] abbreviates: curve of first compound, second compound 0.1 µM.
Where [2] appears, read: curve of first compound, second compound 0.316 µM.
The mark [3] stands for this setting: curve of first compound, second compound 1 µM.

pIC50: −log10 of the molar value. “And” between values parts separate entries of the source, which are not always exact repeats. Identical values can stand only once.
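Note: spheroids exposed to agents for 7 days.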

As for `CCCS(=O)(=O)Nc1ccc(F)c(C(=O)c2c[nH]c3ncc(-c4ccc(Cl)cc4)cc23)c1F` + CCN1CCN(Cc2ccc(Nc3ncc(F)c(-c4cc(F)c5nc(C)n(C(C)C)c5c4)n3)nc2)CC1, the negative-log IC50 (pIC50) was less than 5.00 (curve of first compound, second compound 0.01 µM); less than 5.00 (curve of first compound, second compound 0.0316 µM); less than 5.00 under setting [1]; less than 5.00 under setting [2]; less than 5.00 under setting [3]. For the same compound, the viability, T/C is 107% (second compound 0.01 µM, first compound 0.0316 µM); 105% (second compound 0.01 µM, first compound 0.1 µM); 104% (second compound 0.01 µM, first compound 0.316 µM); 108% (second compound 0.01 µM, first compound 1 µM); 98.1% (second compound 0.01 µM, first compound 3.16 µM); 97.3% (second compound 0.01 µM, first compound 10 µM). Further, the viability, T/C was 81% (second compound 0.0316 µM, first compound 0.0316 µM); 88.7% (second compound 0.0316 µM, first compound 0.1 µM); 85.6% (second compound 0.0316 µM, first compound 0.316 µM); 99.5% (second compound 0.0316 µM, first compound 1 µM); 94.2% (second compound 0.0316 µM, first compound 3.16 µM); 86.9% (second compound 0.0316 µM, first compound 10 µM). Further, the viability, T/C (second compound 0.1 µM, first compound 0.0316 µM) was 73.4%; the viability, T/C (second compound 0.1 µM, first compound 0.1 µM) is 77.8%; the viability, T/C (second compound 0.1 µM, first compound 0.316 µM) was 77.2%; the viability, T/C (second compound 0.1 µM, first compound 1 µM) was 78.5%; the viability, T/C (second compound 0.1 µM, first compound 3.16 µM) is 76.6%; the viability, T/C (second compound 0.1 µM, first compound 10 µM) is 70.8%. Also, the viability, T/C runs as follows: (second compound 0.316 µM, first compound 0.0316 µM) 70.6%; (second compound 0.316 µM, first compound 0.1 µM) 70.2%; (second compound 0.316 µM, first compound 0.316 µM) 63.8%; (second compound 0.316 µM, first compound 1 µM) 76.1%; (second compound 0.316 µM, first compound 3.16 µM) 73.1%; (second compound 0.316 µM, first compound 10 µM) 70.4%. The viability, T/C was 58.9% (second compound 1 µM, first compound 0.0316 µM); 70.9% (second compound 1 µM, first compound 0.1 µM); 72.8% (second compound 1 µM, first compound 0.316 µM); 68.3% (second compound 1 µM, first compound 1 µM); 68.3% (second compound 1 µM, first compound 3.16 µM); 63.2% (second compound 1 µM, first compound 10 µM).
With `C=CC(=O)N1CCN(c2nc(=O)n(-c3c(C)ccnc3C(C)C)c3nc(-c4c(O)cccc4F)c(F)cc23)C(C)C1` (centres undefined), the viability, T/C runs as follows: (compound 0.0316 µM) 73.5% and 77.4%; (compound 0.1 µM) 69.2% and 69.6%; (compound 0.316 µM) 58.3% and 67.6%; (compound 1 µM) 65.6% and 63.7%; (compound 3.16 µM) 67.2% and 65%; (compound 10 µM) 55.8% and 59.9%. Moreover, where the note is “curve of compound”, the pIC50 was less than 5.00.
As for `CCN1CCN(Cc2ccc(Nc3ncc(F)c(-c4cc(F)c5nc(C)n(C(C)C)c5c4)n3)nc2)CC1`, the viability, T/C runs as follows: (compound 0.01 µM) 92% [middle of 13 runs]; (compound 0.0316 µM) 72.6% [middle of 13 runs]; (compound 0.1 µM) 62.2% [middle of 13 runs]; (compound 0.316 µM) 57.3% [middle of 13 runs]; (compound 1 µM) 56.8% [middle of 13 runs].
Consider `CC(=O)c1c(C)c2cnc(Nc3ccc(N4CCNCC4)cn3)nc2n(C2CCCC2)c1=O` + CC(C)NCC(C(=O)N1CCN(c2ncnc3c2C(C)CC3O)CC1)c1ccc(Cl)cc1, for which the negative-log IC50 (pIC50) is less than 6.52 under setting [1]; 7.34 under setting [2]; 8.14 under setting [3]; 8.87 (curve of first compound, second compound 3.16 µM); more than 9.02 (curve of first compound, second compound 10 µM). Further, the viability, T/C (second compound 0.1 µM, first compound 0.000949 µM) was 96.4%; the viability, T/C (second compound 0.1 µM, first compound 0.003 µM) was 101%; the viability, T/C (second compound 0.1 µM, first compound 0.00949 µM) is 91.2%; the viability, T/C (second compound 0.1 µM, first compound 0.03 µM) is 68.8%; the viability, T/C (second compound 0.1 µM, first compound 0.0949 µM) was 65.9%; the viability, T/C (second compound 0.1 µM, first compound 0.3 µM) is 55.4%. The viability, T/C is, setting by setting: (second compound 0.316 µM, first compound 0.000949 µM) 81.6%; (second compound 0.316 µM, first compound 0.003 µM) 71.2%; (second compound 0.316 µM, first compound 0.00949 µM) 68.2%; (second compound 0.316 µM, first compound 0.03 µM) 51.8%; (second compound 0.316 µM, first compound 0.0949 µM) 44.1%; (second compound 0.316 µM, first compound 0.3 µM) 41.5%. The viability, T/C is 61.5% (second compound 1 µM, first compound 0.000949 µM); 57.5% (second compound 1 µM, first compound 0.003 µM); 48% (second compound 1 µM, first compound 0.00949 µM); 34.1% (second compound 1 µM, first compound 0.03 µM); 34.5% (second compound 1 µM, first compound 0.0949 µM); 31.3% (second compound 1 µM, first compound 0.3 µM). For the same compound, the viability, T/C was 51.7% (second compound 3.16 µM, first compound 0.000949 µM); 46.2% (second compound 3.16 µM, first compound 0.003 µM); 35.2% (second compound 3.16 µM, first compound 0.00949 µM); 33.4% (second compound 3.16 µM, first compound 0.03 µM); 25% (second compound 3.16 µM, first compound 0.0949 µM); 24.6% (second compound 3.16 µM, first compound 0.3 µM). The viability, T/C (second compound 10 µM, first compound 0.000949 µM) is 33.4%; the viability, T/C (second compound 10 µM, first compound 0.003 µM) is 36.7%; the viability, T/C (second compound 10 µM, first compound 0.00949 µM) was 28.1%; the viability, T/C (second compound 10 µM, first compound 0.03 µM) is 20.9%; the viability, T/C (second compound 10 µM, first compound 0.0949 µM) is 21.9%; the viability, T/C (second compound 10 µM, first compound 0.3 µM) is 21.9%.
With `Cc1nc(NC(=O)N2CCCC2C(N)=O)sc1-c1ccnc(C(C)(C)C(F)(F)F)c1` (centres undefined), the viability, T/C (compound 0.0316 µM) was 97.9% and 110%; the viability, T/C (compound 0.1 µM) is 95.7% and 102%; the viability, T/C (compound 0.316 µM) was 90% and 98.9%; the viability, T/C (compound 1 µM) was 77% and 89.3%; the viability, T/C (compound 3.16 µM) was 76.2% and 80.2%; the viability, T/C (compound 10 µM) was 63% and 60.7%. Besides, the pIC50 (curve of compound) is less than 5.00.
